Patent US10428083B2, “Heterocyclylmethyl-thienouracile as antagonists of the adenosine-A2B-receptor” (BAYER PHARMA AKTIENGESELLSCHAFT, priority 2015, dated 2019)

Molecular target: human adenosine A2b receptor (Homo sapiens (Human), UniProt P29275)
Experiment: Cellular in vitro reporter gene test for A2b receptor activity (CHO-K1, CRE-luciferase, NECA stimulation)
Format: cell-based
Conditions: recombinant CHO-K1 cell line, CRE-luciferase reporter, antagonism of EC50 concentration of NECA; in some cases means of several determinations, rounded to two significant figures; read-out: A2b receptor IC50
How it was run: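 CHO-K1 cells with CRE-driven luciferase; antagonists co-incubated with NECA at its EC50, determined in a pre-experiment on each test day. Luciferase read by luminescence 3 h after NECA addition.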

Chain of human adenosine A2b receptor (P29275 whole entry): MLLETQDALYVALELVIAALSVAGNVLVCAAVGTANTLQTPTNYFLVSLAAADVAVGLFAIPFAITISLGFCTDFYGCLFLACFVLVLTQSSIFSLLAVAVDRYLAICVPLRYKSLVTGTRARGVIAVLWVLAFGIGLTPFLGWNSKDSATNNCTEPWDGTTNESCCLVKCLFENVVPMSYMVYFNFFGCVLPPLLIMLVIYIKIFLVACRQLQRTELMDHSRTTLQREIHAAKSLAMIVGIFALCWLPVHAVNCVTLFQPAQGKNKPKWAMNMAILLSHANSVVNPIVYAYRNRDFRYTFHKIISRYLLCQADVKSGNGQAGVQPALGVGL

Row | IC50 | Compound
1 | 140 nM | Cc1c(CN2CCN(C(C)C)C2=S)sc2c1c(=O)n(CC(F)(F)F)c(=O)n2C [Example 305, 6-[(3-Isopropyl-2-thioxoimidazolidin-1-yl)methyl]-1,5-dimethyl-3-(2,2,2-trifluoroethyl)thieno[2,3-d]pyrimidine-2,4(1H,3H)-dione]
2 | 75 nM | Cc1c(CN2CCNC2=NC#N)sc2c1c(=O)n(C(C)C)c(=O)n2CC1CCO1 (single isomer, unassigned) [Example 266, [1-{[3-Isopropyl-5-methyl-1-(oxetan-2-ylmethyl)-2,4-dioxo-1,2,3,4-tetrahydrothieno[2,3-d]pyrimidin-6-yl]methyl}imidazolidin-2-ylidene]cyanamide]
3 | 12 nM | COCCn1c(=O)c2c(C)c(CN3CCNC3=O)sc2n(CCCF)c1=O [Example 230, 1-(3-Fluoropropyl)-3-(2-methoxyethyl)-5-methyl-6-[(2-oxoimidazolidin-1-yl)methyl]thieno[2,3-d]pyrimidine-2,4(1H,3H)-dione]
4 | 50 nM | CCn1c(=O)c2c(C)c(Cn3nc[nH]c3=O)sc2n(CC2CCCO2)c1=O (single isomer, unassigned) [Example 420, 3-Ethyl-5-methyl-6-[(5-oxo-4,5-dihydro-1H-1,2,4-triazol-1-yl)methyl]-1-(tetrahydrofuran-2-ylmethyl)thieno[2,3-d]pyrimidine-2,4(1H,3H)-dione]
5 | 360 nM | Cc1c(Cn2[nH]ccc2=O)sc2c1c(=O)n(C(C)C)c(=O)n2CC1CCCO1 (single isomer, unassigned) [Example 136, 3-Isopropyl-5-methyl-6-[(5-oxo-2,5-dihydro-1H-pyrazol-1-yl)methyl]-1-(tetrahydrofuran-2-ylmethyl)thieno[2,3-d]pyrimidine-2,4(1H,3H)-dione]
6 | 3.9 nM | CCCn1c(=O)c2c(C)c(CN3CCNC3=O)sc2n(CCOC)c1=O [Example 84, 1-(2-Methoxyethyl)-5-methyl-6-[(2-oxoimidazolidin-1-yl)methyl]-3-propylthieno[2,3-d]pyrimidine-2,4(1H,3H)-dione]
7 | 15 nM | COC(C)Cn1c(=O)c2c(C)c(CN3CCNC3=NC#N)sc2n(CCC(F)(F)F)c1=O (single isomer, unassigned) [Example 456, [1-{[3-(2-Methoxypropyl)-5-methyl-2,4-dioxo-1-(3,3,3-trifluoropropyl)-1,2,3,4-tetrahydrothieno[2,3-d]pyrimidin-6-yl]methyl}imidazolidin-2-ylidene]cyanamide]
8 | 3.3 nM | Cc1c(CN2CCNC2=O)sc2c1c(=O)n(CC(C)C)c(=O)n2CC(F)F [Example 191, 1-(2,2-Difluoroethyl)-3-isobutyl-5-methyl-6-[(2-oxoimidazolidin-1-yl)methyl]thieno[2,3-d]pyrimidine-2,4(1H,3H)-dione]
9 | 29 nM | Cc1c(CN2CCNC2=O)sc2c1c(=O)n(CC(F)F)c(=O)n2CC1CCCO1 (single isomer, unassigned) [Example 221, 3-(2,2-Difluoroethyl)-5-methyl-6-[(2-oxoimidazolidin-1-yl)methyl]-1-(tetrahydrofuran-2-ylmethyl)thieno[2,3-d]pyrimidine-2,4(1H,3H)-dione]
10 | 3.1 nM | COCCn1c(=O)n(CCc2ccccc2)c(=O)c2c(C)c(CN3CCCS3(=O)=O)sc21 [Example 15, 6-[(1,1-Dioxido-1,2-thiazolidin-2-yl)methyl]-1-(2-methoxyethyl)-5-methyl-3-(2-phenylethyl)thieno[2,3-d]pyrimidine-2,4(1H,3H)-dione]
11 | 57 nM | COCCn1c(=O)n(CC=C(C)C)c(=O)c2c(C)c(CN3CCNC3=O)sc21 [Example 203, 1-(2-Methoxyethyl)-5-methyl-3-(3-methylbut-2-en-1-yl)-6-[(2-oxoimidazolidin-1-yl)methyl]thieno[2,3-d]pyrimidine-2,4(1H,3H)-dione]
12 | 280 nM | COCCn1c(=O)n(CCC(F)(F)F)c(=O)c2c(C)c(CN3CCN(C)C3=O)sc21 [Example 337, 1-(2-Methoxyethyl)-5-methyl-6-[(3-methyl-2-oxoimidazolidin-1-yl)methyl]-3-(3,3,3-trifluoropropyl)thieno[2,3-d]pyrimidine-2,4(1H,3H)-dione]
13 | 32 nM | COCCn1c(=O)n(C(C)C(F)(F)F)c(=O)c2c(C)c(CN3CCNC3=NC(=O)OC)sc21 (single isomer, unassigned) [Example 514, Methyl [1-{[1-(2-methoxyethyl)-5-methyl-2,4-dioxo-3-(1,1,1-trifluoropropan-2-yl)-1,2,3,4-tetrahydrothieno[2,3-d]pyrimidin-6-yl]methyl}imidazolidin-2-ylidene]carbamate]
14 | 5.1 nM | COC(=O)N=C1NCCN1Cc1sc2c(c1C)c(=O)n(C(C)C(F)(F)F)c(=O)n2CCC(F)(F)F (racemic) [Example 470, Methyl [1-{[5-methyl-2,4-dioxo-3-(1,1,1-trifluoropropan-2-yl)-1-(3,3,3-trifluoropropyl)-1,2,3,4-tetrahydrothieno[2,3-d]pyrimidin-6-yl]methyl}imidazolidin-2-ylidene]carbamate]
15 | 2000 nM | CCn1c(=O)c2c(C)c(C(C)N3CCNC3=O)sc2n(CCC(F)(F)F)c1=O (single isomer, unassigned) [Example 504, 3-Ethyl-5-methyl-6-[1-(2-oxoimidazolidin-1-yl)ethyl]-1-(3,3,3-trifluoropropyl)thieno[2,3-d]pyrimidine-2,4(1H,3H)-dione]
16 | 5.9 nM | CCn1c(=O)c2c(C)c(CN3CCNC3=NC(=O)OC)sc2n(CC2CCO2)c1=O (single isomer, unassigned) [Example 373, Methyl [1-{[3-ethyl-5-methyl-1-(oxetan-2-ylmethyl)-2,4-dioxo-1,2,3,4-tetrahydrothieno[2,3-d]pyrimidin-6-yl]methyl}imidazolidin-2-ylidene]carbamate]
17 | 11 nM | Cc1c(CN2CCNC2=O)sc2c1c(=O)n(CC(F)(F)F)c(=O)n2CCCF [Example 93, 1-(3-Fluoropropyl)-5-methyl-6-[(2-oxoimidazolidin-1-yl)methyl]-3-(2,2,2-trifluoroethyl)thieno[2,3-d]pyrimidine-2,4(1H,3H)-dione]
18 | 1.4 nM | C#CCCn1c(=O)c2c(C)c(CN3CCNC3=O)sc2n(CCOC)c1=O [Example 318, 3-(But-3-yn-1-yl)-1-(2-methoxyethyl)-5-methyl-6-[(2-oxoimidazolidin-1-yl)methyl]thieno[2,3-d]pyrimidine-2,4(1H,3H)-dione]
19 | 27 nM | CCn1c(=O)c2c(C)c(CN3CCNC3=NC(=O)OC)sc2n(CC2CCO2)c1=O (single isomer, unassigned) [Example 372, Methyl [1-{[3-ethyl-5-methyl-1-(oxetan-2-ylmethyl)-2,4-dioxo-1,2,3,4-tetrahydrothieno[2,3-d]pyrimidin-6-yl]methyl}imidazolidin-2-ylidene]carbamate]
20 | 18 nM | COCCn1c(=O)n(CCF)c(=O)c2c(C)c(CN3CCNC3=O)sc21 [Example 97, 3-(2-Fluoroethyl)-1-(2-methoxyethyl)-5-methyl-6-[(2-oxoimidazolidin-1-yl)methyl]thieno[2,3-d]pyrimidine-2,4(1H,3H)-dione]
21 | 5.1 nM | CCn1c(=O)c2c(C)c(CN3CCOC3=O)sc2n(CCC(F)(F)F)c1=O [Example 21, 3-Ethyl-5-methyl-6-[(2-oxo-1,3-oxazolidin-3-yl)methyl]-1-(3,3,3-trifluoropropyl)thieno[2,3-d]pyrimidine-2,4(1H,3H)-dione]
